What is called IC50 is the concentration at which inhibition is half-maximal. The low end stands for greater potency in that assay, the high end for weaker potency in that assay. What is called inhibition is the change of the read-out against control, counted positive when it falls. A higher inhibition goes with a response far below the control.

In test [1] the target is T1, Prostaglandin endoperoxide synthase (Ovis aries, UniProt P05979).
T1 construct: sheep seminal vesicular gland microsomes (SSVM) as the enzyme source; from tissue; host or cells: sheep seminal vesicular gland microsomes, acetone powder
T1 sequence (P05979 25-600): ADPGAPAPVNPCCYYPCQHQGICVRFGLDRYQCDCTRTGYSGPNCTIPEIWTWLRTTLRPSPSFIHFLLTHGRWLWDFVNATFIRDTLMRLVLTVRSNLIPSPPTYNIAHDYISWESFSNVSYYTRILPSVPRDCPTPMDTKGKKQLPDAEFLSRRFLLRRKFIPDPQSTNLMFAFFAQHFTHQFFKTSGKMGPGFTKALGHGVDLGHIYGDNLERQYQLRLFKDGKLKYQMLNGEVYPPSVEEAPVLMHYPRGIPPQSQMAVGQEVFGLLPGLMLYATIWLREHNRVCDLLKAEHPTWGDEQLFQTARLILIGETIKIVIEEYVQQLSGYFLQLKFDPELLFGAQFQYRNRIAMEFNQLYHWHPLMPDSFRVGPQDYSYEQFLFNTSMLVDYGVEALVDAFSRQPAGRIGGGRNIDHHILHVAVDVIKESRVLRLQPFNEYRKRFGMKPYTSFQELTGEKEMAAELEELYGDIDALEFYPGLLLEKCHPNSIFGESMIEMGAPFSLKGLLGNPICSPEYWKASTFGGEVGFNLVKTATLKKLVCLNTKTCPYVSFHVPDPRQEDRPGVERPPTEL
The test can be described thus: Prostaglandin endoperoxide synthase (PES) assay, oxygen uptake with sheep seminal vesicular gland microsomes. The settings on record: 33 μM arachidonic acid, pH 8.5. Type of test: biochemical. As for the experimental part:
The activity of PES was measured polarigraphically by following the disappearance of dissolved O2 from incubation mixtures containing arachidonic acid (AA) as substrate and sheep seminal vesicular gland microsomes (SSVM) as the enzyme source. Fifty mg of an acetone powder of SSVM were suspended, using a glass teflon homogenizer, in 1 ml of 0.1M tris. HCl (pH, 8.5) containing 0.67 mM phenol. This suspension of SSVM was incubated at room temperature in the presence of phenol to maximumly activate the PES and then the suspension was kept at 0°. Samples in a separate reaction vessel were each prepared by adding tris-phenol buffer (2.8 ml), 0.05 ml of the SSVM suspension, and a maximum of 0.12 ml of ethanol containing various concentrations of the test drug. […] Reaction vessels were then allowed to reach temperature equilibrium. An oxygen electrode is inserted into the vessel and then 24 μl of 4.1 mM AA are injected into the sealed vessel through a port on the side of the electrode. The final concentration of AA is 33 μM. Oxygen uptake is recorded and the initial rate of oxygen uptake used as a measure of PES activity. Each of the test compounds were tested initially at a high concentration (1 mM) and then, if required, dilutions are made. The mean percent inhibition was obtained for each concentration of the various test drugs by expressing as a percent the number obtained by dividing the difference of the oxygen uptake of the test sample by the oxygen uptake of the control. The concentration of test drug which inhibits the synthesis of PES by 50% (IC50) which is given in the following table was determined for each test drug from a plot of mean percent inhibition verses drug concentration. The difference of the oxygen uptake of test sample was obtained by subtracting from the oxygen uptake of the control, the oxygen uptake of the test sample.

Test [2] deals with T1, Prostaglandin endoperoxide synthase. To be noted: statement on standard; cited from earlier work.
In test [3] the test system is SRS-A synthesis (Rat Peritoneal Cells). The settings on record: statement on standard; cited from earlier work.
Test [4] has as its target T2, Δ^12-lipoxygenase (Human Platelet) (Homo sapiens, UniProt P18054).
T2 construct: using human platelets as the enzyme source; from tissue; host or cells: human platelets (washed, lysed by freezing and thawing; 100,000×g supernatant, 50% ammonium sulfate precipitate)
T2 sequence (P18054 1-663): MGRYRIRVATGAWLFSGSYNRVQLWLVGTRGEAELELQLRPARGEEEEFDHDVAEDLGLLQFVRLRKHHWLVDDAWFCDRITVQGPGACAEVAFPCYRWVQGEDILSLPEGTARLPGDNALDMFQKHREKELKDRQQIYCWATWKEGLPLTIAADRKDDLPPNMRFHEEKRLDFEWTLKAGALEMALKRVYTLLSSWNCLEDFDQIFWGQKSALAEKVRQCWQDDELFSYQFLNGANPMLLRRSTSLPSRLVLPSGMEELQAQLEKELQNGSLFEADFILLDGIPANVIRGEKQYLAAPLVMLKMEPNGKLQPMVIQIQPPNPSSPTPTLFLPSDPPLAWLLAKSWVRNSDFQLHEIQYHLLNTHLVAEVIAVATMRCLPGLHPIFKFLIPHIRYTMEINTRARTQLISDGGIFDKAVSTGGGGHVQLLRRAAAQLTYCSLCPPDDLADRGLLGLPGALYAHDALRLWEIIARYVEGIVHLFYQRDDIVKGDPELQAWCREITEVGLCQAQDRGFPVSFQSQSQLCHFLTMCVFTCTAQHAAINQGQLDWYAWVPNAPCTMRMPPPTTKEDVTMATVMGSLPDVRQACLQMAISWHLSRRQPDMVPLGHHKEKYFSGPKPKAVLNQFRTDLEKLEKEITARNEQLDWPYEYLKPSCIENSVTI
To be noted: statement on standard; cited from earlier work.

In test [5] the test system is SRS-A synthesis (Rat Peritoneal Cells). Kind of test: Inhibition of the in vitro synthesis of SRS-A in rat peritoneal cells (ionophore A23187 challenge, guinea pig ileum bioassay). Type of test: cell-based, rat (male Sprague-Dawley). The settings on record: for inhibition at 10 µM: p values given. The source says:
To study the effect of drugs on SRS-A synthesis in rat peritoneal cells, these cells (including mast cells, monocytes, eosinophils and neutrophils)were isolated from male Sprague-Dawley rats (Charles River Laboratories) weighing 180-220 g by the lavage procedure described by Herzig, D. J. and Kusner, E. J., Journal of Pharmacology and Experimental Therapeutics, 194, 457-462 (1975) with the exception that Hanks balanced salt solution used in these experiments was adjusted to pH 6.9 with 5% (V/V) of 0.1M aqueous phosphate buffer and contained 50 m/gml sodium heparin. After removal from the peritoneal cavity of rats, the cells were subsequently isolated by centrifugation at 400×gravity for 10 minutes at 4° C. and resuspended to a concentration of about 2,000,000 cells per ml in Hanks buffer.
Samples for evaluation were prepared by adding various concentrations of test drugs to 2 ml aliquots of the resuspended cells in Hanks buffer. The 2 ml samples used for control contained 2 ml aliquots of resuspended cells in Hanks buffer without drugs. All of the above samples (2 ml final volume) were preincubated at 37° C. for 10 minutes in the presence of varying concentrations of test drug prior to challenge with 5×10^-7 M ionophore […]. This ionophore is disclosed in Burka and Flower, Br. J. Pharmacology 65: 35-41 (1979). Antibiotic A23187 was used as a probe for the study of calcium and magnesium function in biological systems. After ionophore challenge, SRS-A was synthesized in the samples by the cells for 10 minutes (at 37° C.) after which this synthesis was terminated by placing the samples in a boiling water bath for 10 minutes followed by centrifugation at 2,000×g (10 minutes) at 4° C. to remove coagulated protein and cellular debris. The SRS-A present in the resulting supernatants was quantitated by a bioassay using a guinea pig ileum as described in Orange, and Austen, Adv. Immunol. 10: 105-144 144 (1969). For this bioassay, a 1.5 cm segment of ileum was removed from animals weighing 300 to 400 g and suspended in an organ bath containing 10 ml of Tyrodes solution with 10^-6 M atropine sulfate and 10^-6 M pyrilamine maleate. The bath was maintained at 37° C. and aerated with a mixture of 95% O2 and 5%CO2. The concentration of SRS-A in the experimental samples was determined by a comparison of the isotonic contraction responses elicited by the samples with those obtained with varying amounts of an SRS-A standard solution prepared from chopped guinea pig lung as disclosed in Hitchcock, M. J. Pharmacol. Exp. Ther. 207: 630-640 (1978) and quantituted by the procedures of Orange, R. R. and Austen, K. F. Adv. Immunol. 10: 105-144 (1969) against histamine (1 unit of SRS-A being that amount which gives a contractile response similar to that of […] of histamine). In the absence of drug, the ionophore A23187-induced SRS-A synthesis varied between 40 to 50 units of SRS-A per 10^6 cells. In the presence of increasing concentrations of test drug, there was a concentration-related decrease in SRS-A synthesis. [formula] at each concentration of the various test drugs was calculated. The concentration of test drug which inhibits the synthesis of SRS-A by 50% (IC50) was determined for each test drug from a plot of the mean percent inhibition versus the log of drug concentration. The difference of units of SRS-A in the test sample used in the fraction given above was obtained by subtracting from the units of SRS-A in the control from the actual measurement of the units of SRS-A in the sample.

Test [6] addresses T2, Δ^12-lipoxygenase (Human Platelet). The test can be described thus: Δ^12-lipoxygenase assay (conversion of 14C-arachidonic acid to 12-HETE, human platelet enzyme). The class given is biochemical. To be noted: 3-4 μM arachidonic acid. The procedure: Δ^12 -lipoxygenase activity was measured by following the conversion of ^14 C-arachidonic acid (AA) to ^14 C-12-hydroxy-5,8,10,14-eicosatetraenoic acid (12-HETE) using human platelets as the enzyme source. Washed human platelets from approximately 2000 ml of blood were suspended in 50 ml of phosphate buffered saline (PBS) and then lysed by freezing and thawing (3 times). The platelet lysate was homogenized using a glass-teflon homogenizer and then particulate material was sedimented by centifugation at 100,000×g for 1 hr and the sediment was discarded. The supernatant was made 50% by weight saturated with respect to (NH4)2 SO4 by adding solid ammonium sulfate. The resultant suspension was allowed to stand at 0° overnight. The precipitate was collected by centrifugation and was dissolved in approximately 25 ml of PBS. This solution was the enzyme solution utilized to catalyze the conversion of AA to 12 HETE.
In order to test the compounds, separate incubation tubes for each of the compounds and for concentrations of these compounds were prepared in an ice bath. These tubes each contained 140 μl of PBS containing 1.78 mM glutathione, 10 μl of test drug in ethanol, 50 μl of platelet supernatant, and 50 μl of ^14 C-AA. […] Incubation tubes were prepared containing only buffer ethanol and ^14 c-AA were included as substrate controls. The final concentration of AA added as its ammonium salt in PBS, in each of the incubation tubes 3-4 μM. Sufficient enzyme solution prepared as above was added so that, under the conditions of the assay, approximately 80-90% by weight of the ^14 C-AA was converted to 12-HETE, as determined by prior controls. The tubes were incubated at 37° for 2 min, the reaction was stopped by the addition, while mixing on a mixer, of 2 ml of diethyl ether and 50 μl of 1M citric acid. The ether in the presence of citric acid extracted 12-HETE and AA from enzyme in the reaction medium in each of the samples. The ether extract was evaporated to dryness under nitrogen and then the residue was dissolved in 50 μl of chloroform:methanol (2:1 parts by volume). The dissolved residue containing 12-HETE and AA was applied, as rapidly as possible, to a glass fiber sheet impregnated with silica gel and then the chromatogram was developed using isooctane:methylethylketone:acetic acid (100:9:1 parts by volume) as solvent. Radioactive products and unconverted ^14 C-AA were located using a thin-layer chromatography scanner. The appropriate regions of the chromatogram were cut out, then the radioactivity quantitated using a liquid scintillation counter. The amount of ^14 C-AA converted to product is used as a measure of Δ^12 -lipoxygenase activity.
The mean percent inhibition was calculated by multiplying 100 times the following fraction: [formula] at each concentration of the various test drugs was calculated.

In turn, `CCCCCC#CCC#CCC#CCC#CCCCC(=O)O` [5,8,11,14-Eicosatetraynoic Acid, reference compound] gave an IC50 in test [1] of 5 µM. For the same compound, in test [2], the “inhibition of prostaglandin endoperoxide synthase (in words)” value is given as “potent inhibitor”. Moreover, in test [3], the “inhibition of SRS-A synthesis (in words)” value is reported as “standard potent inhibitor of SRS-A synthesis”. The “inhibition of Δ^12-lipoxygenase (in words)” value in test [4] is “potent inhibitor”. For the same compound, in test [5], the IC50 fell in the range of 3 to 4 µM and testing at 10 µM gave an inhibition of 100%.

Consider `CCCCC/C=C\C/C=C\CC#CCC#CCCCC(=O)OC` [Compound 4, (Z,Z)-11,14-eicosadien-5,8-diynoic acid methyl ester], for which the IC50 in test [6] is 10 to 100 µM. Besides, in test [5], the IC50 is below 10 µM and at 10 µM the inhibition was 85 ± 8%.

Turning to `CCCCC/C=C\CCCCC#CCC#CCCCC1=NC(C)(C)CO1` [Compound 7, 2[(Z)-13-nonadecen-4,7-diynyl]-4,5-dihydro-4,4-dimethyloxazole], the IC50 in test [6] is around 100 µM. For the same compound, in test [5], the IC50 was below 10 µM and the inhibition at 10 µM came out at 86 ± 8%.

As for `CCCCC/C=C\CCCCC#CCC#CCCC(F)C1=NC(C)(C)CO1` (stereo not drawn) [Compound 8, 2-(1-fluorononadec-13(Z)-en-4,7-diynyl)-4,5-dihydro-4,4-dimethyloxazole], in test [6], the 50% inhibitory concentration (IC50) was above 100 µM. Besides, in test [5], the concentration for half-maximal inhibition (IC50) was below 10 µM and the inhibition at 10 µM was determined as 88 ± 6%.

The values are drawn from patent US4642364A, “Unsaturated eicosanoic acids” (Hoffmann-La Roche Inc., priority 1986, dated 1987).
